Source: patent publication US20250296938A1, “Compounds that Interact with the Ras Superfamily for the Treatment of Cancers, Inflammatory Diseases, Rasopathies, and Fibrotic Disease” (SHY Therapeutics, LLC, priority 2018, published 2025)
Each block holds one compound with its values, some of them ahead of it.

Assays:
[1] = tested on: GTP-bound RAS; assay: Cell-based Ras-GTP pulldown assay, MIA PaCa-2; conditions: Homo sapiens; for inhibition at 10 µM: 6 hours, EGF stimulation
Protocol: (§1) Cell lines: Human NSCLC cells NCI-H1975, and tumor-derived pancreatic cancer cell lines Panc-1, and MIA-PaCa-2, were all purchased from American Type Culture Collection and grown in complete RPMI medium (NCI-H1975) or DMEM-High Glucose (Panc1 and MIA-PaCa-2), supplemented with penicillin (100 U/mL), streptomycin (100 μg/mL), and 10% heat-inactivated FBS at 37° C. in a humidified incubator with 5% CO2.
(§2) Method: Cells were plated at 2·10^6 cells/well density in a 6-well plate, allowed 3 hours to adhere to the plate, then starved in the appropriate medium in the presence of 0.5% FBS overnight. The small molecules to be tested were added to the cells in the final concentration of 10 μM in the presence of 0.3% DMSO for 6 hours incubation at 37° C. For IC50 value determination, serial dilutions of compounds were added to cells under the same conditions. Next, cells were stimulated with 5 ng/mL EGF for 5 minutes, rinsed with ice-cold PBS and then lysed with 500 μL of lysis/binding/wash buffer (25 mM Tris-HCl, pH 7.2, 150 mM NaCl, 5 mM MgCl2, 5% glycerol, 1% NP40) from Active Ras Detection kit (Cell signaling Technology, #8821) supplemented with Halt™ Protease & Phosphatase Inhibitor Cocktail (Thermo Scientific). To account for significant differences in cell number due to the treatment, a small sample of lysate was saved for protein quantification and the rest of the lysate was snap frozen. Protein concentration was assessed by BCA protein assay (Thermo Scientific). To ensure that equal amount of protein undergoes RBD pulldown, lysates were subsequently thawed (at RT) and adjusted to 1 mg/mL with lysis/binding/wash buffer (0.5 mL volume). Equal amounts of lysate were then added to 0.5 mL lysis buffer containing RAF-RBD (1 mL total volume). Lysates were vortexed, incubated for 10 min on ice and subsequently pre-cleared at 14,000 rpm for 5 min at 4° C. 90% of the pre-cleared lysates were subsequently added to pre-washed glutathione agarose beads from Active Ras Detection kit (Cell signaling Technology, #8821) for 1 hour at 4 °C under constant rocking. The beads were subsequently pelleted, washed 3 times with lysis/binding/wash buffer, and eluted for western blotting with 50 μL of 1×SDS-PAGE sample buffer. Level of GTP-bound RAS was determined by western blot.
Western blot protocol: Equal volumes of eluate (25 μL) were separated by 16% SDS-PAGE and transferred to nitrocellulose membranes (Invitrogen by Thermo Fisher Scientific). The membrane was stained with Ponceau S Stain (Boston BioProducts) to verify uniform protein loading. Membranes were blocked with 5% BSA in TBST and then incubated overnight at 4° C. with anti-RAS mouse monoclonal antibody from the Active Ras Detection kit (Cell signaling Technology, #8821), followed by HRP-conjugated secondary antibody (Jackson Immunoresearch, West Grove, PA). Membranes were incubated in Amersham ECL Prime Western Blotting Detection Reagent (GE Healthcare) and bands were visualized using the ChemiDoc MP imaging system (Bio-Rad).

[2] = tested on: GTP-bound RAS; assay: Cell-based Ras-GTP pulldown assay, NCI H1975; conditions: Homo sapiens
Protocol: as §1, §2
(§3) Western blot protocol: Equal volumes of eluate (25 μL) were separated by 16% SDS-PAGE and transferred to nitrocellulose membranes (Invitrogen by Thermo Fisher Scientific). The membrane was stained with Ponceau S Stain (Boston BioProducts) to verify uniform protein loading. […]

[3] = tested on: GTP-bound RAS; assay: Cell-based Ras-GTP pulldown assay, PANC-1; conditions: Homo sapiens
Protocol: as §1, §2, §3

[4] = biological target: K-Ras GTP binding domain; assay: SPA and MST studies, GTP affinity across wild type and mutant K-Ras
Description: (§4) This therefore led to the novel, unanticipated conclusion that compounds such as small molecules could be discovered that would bind to a Ras GTP binding domain and compete with the binding of GTP to Ras.
(§5) See Khawaja et al., “Scintillation proximity assay in lead discovery”, Expert Opin. Drug Discov., 2008 November; 3 (11): 1267-80 regarding SPA procedures. See the following references regarding MST technology: Wienken et al., Nature Communications (2010), Protein binding assays in biological liquids using MicroScale Thermophoresis; Jerabek-Willemsen et al., ASSAY and Drug Development Technologies (2011), Molecular interaction studies using MicroScale Thermophoresis; Lin et al., Cell (2012), Inhibition of basal FGF receptor signaling by dimeric Grb2; Seidel et al., Angewandte Chemie (2012), Label-Free MicroScale Thermophoresis discriminates sites and affinity of protein-ligand binding; Seidel et al., Methods (2012), MicroScale Thermophoresis quantifies biomolecular interactions under previously challenging conditions; Parker & Newstead, Nature (2014), Molecular basis of nitrate uptake by the plant nitrate transporter NRT1.1; and Jerabek-Willemsen et al., Journal of Molecular Structure (2014), MicroScale Thermophoresis: Interaction analysis and beyond.

[5] = biological target: Rac-1 and Rho-A; assay: SPA and MST studies, GTP affinity for Rho subfamily members; conditions: read-out: affinity of GTP for the binding domain of Rho subfamily members
Description: as §4, §5

[6] = biological target: T1, K-Ras (wild type) (Homo sapiens, UniProt P01116); assay: MicroScale Thermophoresis (MST), GTP affinity; type: binding
T1 sequence (P01116 1-188 isoform P01116-2): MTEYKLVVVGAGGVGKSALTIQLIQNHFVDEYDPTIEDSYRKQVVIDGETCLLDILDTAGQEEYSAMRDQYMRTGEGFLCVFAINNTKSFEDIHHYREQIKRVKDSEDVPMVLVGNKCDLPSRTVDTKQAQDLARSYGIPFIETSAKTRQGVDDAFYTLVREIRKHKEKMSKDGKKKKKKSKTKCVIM
Description: (§6) As disclosed in International Application No. PCT/US2018/038613 and U.S. patent application Ser. No. 16/013,872, the affinity of GTP for the GTP binding domain of K-Ras utilizing a Scintillation Proximity Assay (SPA) and MicroScale Thermophoresis (MST) has been measured. These methods were not available when Wittinghofer and colleagues undertook their studies.
as §4, §5

[7] = biological target: T2, K-Ras (Q61H) (Homo sapiens, UniProt P01116, Q61H); assay: MicroScale Thermophoresis (MST), GTP affinity; type: binding
T2 sequence (P01116 1-188 isoform P01116-2 Q61H): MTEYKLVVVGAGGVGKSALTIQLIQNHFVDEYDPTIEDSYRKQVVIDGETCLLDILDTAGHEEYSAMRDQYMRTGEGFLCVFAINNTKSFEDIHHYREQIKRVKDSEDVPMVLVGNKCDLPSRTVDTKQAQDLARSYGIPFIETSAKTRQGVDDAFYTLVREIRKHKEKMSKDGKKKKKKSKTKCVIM
Description: as §6, §4, §5

[8] = biological target: T3, K-Ras (G12C) (Homo sapiens, UniProt P01116, G12C); assay: MicroScale Thermophoresis (MST), GTP affinity; type: binding
T3 sequence (P01116 1-188 isoform P01116-2 G12C): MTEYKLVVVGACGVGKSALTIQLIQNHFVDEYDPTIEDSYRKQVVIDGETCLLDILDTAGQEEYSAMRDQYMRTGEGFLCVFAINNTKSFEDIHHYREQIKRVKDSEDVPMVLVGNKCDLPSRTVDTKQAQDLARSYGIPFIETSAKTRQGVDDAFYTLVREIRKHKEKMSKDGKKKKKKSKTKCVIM
Description: as §6, §4, §5

[9] = biological target: T4, K-Ras (G12D) (Homo sapiens, UniProt P01116, G12D); assay: MicroScale Thermophoresis (MST), GTP affinity; type: binding
T4 sequence (P01116 1-188 isoform P01116-2 G12D): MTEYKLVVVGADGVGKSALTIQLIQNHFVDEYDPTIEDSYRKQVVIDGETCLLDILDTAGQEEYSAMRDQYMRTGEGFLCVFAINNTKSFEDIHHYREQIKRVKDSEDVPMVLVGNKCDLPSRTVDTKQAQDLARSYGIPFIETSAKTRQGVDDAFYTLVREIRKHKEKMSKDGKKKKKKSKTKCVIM
Description: as §6, §4, §5

[10] = biological target: T5, Rho-A (Homo sapiens, UniProt P61586); assay: MicroScale Thermophoresis (MST), GTP affinity; type: binding
T5 sequence (P61586 whole entry): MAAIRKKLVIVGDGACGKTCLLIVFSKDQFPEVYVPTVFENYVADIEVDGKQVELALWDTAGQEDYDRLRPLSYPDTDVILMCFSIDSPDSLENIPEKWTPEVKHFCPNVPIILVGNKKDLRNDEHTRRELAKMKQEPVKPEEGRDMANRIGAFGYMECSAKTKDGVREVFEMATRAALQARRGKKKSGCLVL
Description: as §6, §4, §5

[11] = biological target: GTP binding domain of Ras; conditions: literature (Feuerstein 1987; John 1990); cited from earlier work
[12] = biological target: T6, Rac-1 (Homo sapiens, UniProt P63000); assay: MicroScale Thermophoresis (MST), GTP affinity; type: binding
[13] = biological target: T5, Rho-A; assay: Scintillation Proximity Assay (SPA), GTP affinity; type: binding
[14] = biological target: T6, Rac-1; assay: Scintillation Proximity Assay (SPA), GTP affinity; type: binding
[15] = biological target: T1, K-Ras (wild type); assay: Scintillation Proximity Assay (SPA), GTP affinity; type: binding
Description: as §6, §4, §5

[16] = biological target: T2, K-Ras (Q61H); assay: Scintillation Proximity Assay (SPA), GTP affinity; type: binding
Description: as §6, §4, §5

[17] = biological target: T3, K-Ras (G12C); assay: Scintillation Proximity Assay (SPA), GTP affinity; type: binding
Description: as §6, §4, §5

[18] = biological target: T4, K-Ras (G12D); assay: Scintillation Proximity Assay (SPA), GTP affinity; type: binding
Description: as §6, §4, §5

[19] = tested on: MEK phosphorylation; assay: Western MEK cell-based phosphorylation assay, MIA PaCa-2; conditions: Homo sapiens
Protocol: as §1, with “NCI-H1975” for “NCI-H1975,”, “Panc-1” for “Panc-1,”, “MIA-PaCa-2” for “MIA-PaCa-2,”
(§7) Method: Cells were plated at 350000 cells/well density in a 12-well plate, allowed 3 hours to adhere to the plate, then starved in the appropriate medium in the presence of 0.5% FBS overnight. The small molecules to be tested were added to the cells in the final concentration of 10 μM in the presence of 0.3% DMSO for 6 hours incubation at 37° C. […] Protein concentration was assessed by BCA protein assay (Thermo Scientific). Phosphorylation level of MEK was determined by western blot.
(§8) Western blot protocol: Equal amounts of protein (15-50 μg) were separated by SDS-PAGE and transferred to nitrocellulose membranes (Invitrogen by Thermo Fisher Scientific). […] Membranes were blocked with 10% milk and phosphorylation levels of MEK were assessed by incubating overnight at 4° C. with anti-phospho-MEK 1/2 (Ser217/Ser221) antibody (Cell Signaling) followed by HRP-conjugated secondary antibody (Jackson Immunoresearch, West Grove, PA). […]

[20] = tested on: MEK phosphorylation; assay: Western MEK cell-based phosphorylation assay, NCI H1975; conditions: Homo sapiens
Protocol: as §1, with “NCI-H1975” for “NCI-H1975,”, “Panc-1” for “Panc-1,”, “MIA-PaCa-2” for “MIA-PaCa-2,”
as §7, §8

[21] = tested on: MEK phosphorylation; assay: Western MEK cell-based phosphorylation assay, PANC-1; conditions: Homo sapiens
Protocol: as §1, with “NCI-H1975” for “NCI-H1975,”, “Panc-1” for “Panc-1,”, “MIA-PaCa-2” for “MIA-PaCa-2,”
Method: Cells were plated at 350000 cells/well density in a 12-well plate, allowed 3 hours to adhere to the plate, then starved in the appropriate medium in the presence of 0.5% FBS overnight. The small molecules to be tested were added to the cells in the final concentration of 10 μM in the presence of 0.3% DMSO for 6 hours incubation at 37° C. For IC50 value determination, serial dilutions of compounds were added to cells under the same conditions. Next, cells were stimulated with 1.5 ng/ml EGF for 15 minutes then cells were lysed with lysis buffer containing 1% Triton X-100, EDTA, and Halt™ Protease & Phosphatase Inhibitor Cocktail (Thermo Scientific). Protein concentration was assessed by BCA protein assay (Thermo Scientific). Phosphorylation level of MEK was determined by western blot.
Western blot protocol: Equal amounts of protein (15-50 μg) were separated by SDS-PAGE and transferred to nitrocellulose membranes (Invitrogen by Thermo Fisher Scientific). The membrane was stained with Ponceau S Stain (Boston BioProducts) to verify uniform protein loading. Membranes were blocked with 10% milk and phosphorylation levels of MEK were assessed by incubating overnight at 4° C. with anti-phospho-MEK 1/2 (Ser217/Ser221) antibody (Cell Signaling) followed by HRP-conjugated secondary antibody (Jackson Immunoresearch, West Grove, PA). Bands were incubated in Amersham ECL Prime Western Blotting Detection Reagent (GE Healthcare) and visualized using the ChemiDoc MP imaging system (Bio-Rad).

[22] = 10 μM, 6 hours, EGF stimulation

Compound: CO[C@H]1CC[C@@H](Nc2nc(-c3nccn3C)nc3sc(-c4ccn(C(C)C)n4)c(C4=CC=CCC=C4)c23)C1 [drawing 1078]
inhibition at 10 µM [1]: 76 to 100%

Compound: CO[C@H]1CCC(Nc2nc(-c3nccn3C)nc3sc(-c4ccn(C)n4)c(-c4ccccc4)c23)C1 (stereo partly shown) [drawing 1077]
inhibition at 10 µM [1]: 76 to 100%
inhibition at 10 µM [2, 22]: 76 to 100%
inhibition at 10 µM [3, 22]: 76 to 100%

Further lines, with some results ahead:

Kd [4]: 100 to 465 nM
Kd [5]: 120 to 170 nM
Kd [6]: 463 ± 2 nM
Kd [7]: 157 ± 21 nM
Kd [8]: 207 ± 46 nM
Kd [9]: 244 ± 12 nM
Kd [10]: 130 ± 5 nM
Kd [12]: 166 ± 10 nM
Kd [13]: 129 ± 12 nM
Kd [14]: 151 ± 14 nM
Kd [15]: 243 ± 15 nM
Kd [16]: 118 ± 11 nM
Kd [17]: 258 ± 18 nM
Kd [18]: 270 ± 15 nM
Compound: Nc1nc2c(ncn2[C@@H]2O[C@H](COP(=O)(O)OP(=O)(O)OP(=O)(O)O)[C@@H](O)[C@H]2O)c(=O)[nH]1 [GTP]
affinity for the GTP binding domain of Ras [11]: single to double digit picomolar

IC50 [19]: > 1000 nM
IC50 [21]: 750 to 1000 nM
Compound: CO[C@H]1CCC(Nc2nc(-c3nccn3C)nc3sc(-c4ccn(C)n4)c(-c4ccccc4)c23)C1 (stereo partly shown) [drawing 478]
IC50 [20]: > 1000 nM

IC50 [1]: > 1000 nM
IC50 [3]: 750 to 1000 nM
Compound: CO[C@H]1CCC(Nc2nc(-c3nccn3C)nc3sc(-c4ccn(C)n4)c(-c4ccccc4)c23)C1 (stereo partly shown) [drawing 1080]
IC50 [2]: > 1000 nM
